How the values were obtained:
[1] = TRM-201-PK-102 safety: treatment-emergent adverse events; format: in vivo, human
Description: The timing and frequency of all safety assessments was listed in the schedule of events (Table 19). Safety and tolerability included monitoring and recording of AEs, clinical laboratory assessments (hematology, serum chemistry, and urinalysis), vital sign measurements, 12-lead ECG assessments, and physical examination findings. […] If clinical significance was noted, the result and reason for significance were documented. Any abnormal laboratory test results (hematology, clinical chemistry, or urinalysis) or other safety assessments (e.g., ECGs, vital sign measurements), including those that worsen from baseline, felt to be clinically significant in the medical and scientific judgment of the investigator were to be recorded as AEs or SAEs.
The investigator was responsible for reporting all AEs that were observed or reported during the study, regardless of their relationship to study drug or their clinical significance. If there was any doubt as to whether a clinical observation was an AE, the event was reported. An AE was defined as any untoward medical occurrence in a subject enrolled into this study regardless of its causal relationship to study drug. Subjects were instructed to contact the investigator at any time after enrollment if any symptoms developed. A treatment-emergent AE (TEAE) was defined as any event not present before exposure to study drug or any event already present that worsens in either intensity or frequency after exposure to study drug.
All safety data were summarized. The incidence of adverse events was presented by the MedDRA system organ class and preferred term, relationship to the test article, and severity. Descriptive statistics of clinical laboratory results and vital signs were presented, as well as summaries of changes from baseline (from the Check-in visit(s)) and of clinically notable values. All AE data were presented in a data listing TEAEs were summarized overall, as well as by severity and relationship to study drug. Serious AEs and AEs leading to discontinuation of study drug were also presented in the data listings and summarized. Actual values and changes from Baseline for clinical laboratory test results, vital sign measurements, and 12-lead ECG results were summarized at each time point using descriptive statistics (number of subjects, mean, SD, median, minimum, and maximum).

[2] = cited from earlier work
[3] = target: COX-2 (Homo sapiens, UniProt P35354); details: at therapeutic concentrations; cited from earlier work
[4] = LC-MS/MS method validation: stability of rofecoxib; format: physicochemical, human
Description: In order to support clinical studies with TRM-201 (rofecoxib), a method was developed for the determination of rofecoxib in human plasma by LC-MS/MS. This method was validated in accordance with the FDA Good Laboratory Practice Regulations (GLP) as set forth in Title 21 of the U S. Code of Federal Regulations Part 58 as well as FDA Guidance for Industry: Bioanalytical Method Validation, May 2018.

Sequence of COX-2 (P35354 18-604): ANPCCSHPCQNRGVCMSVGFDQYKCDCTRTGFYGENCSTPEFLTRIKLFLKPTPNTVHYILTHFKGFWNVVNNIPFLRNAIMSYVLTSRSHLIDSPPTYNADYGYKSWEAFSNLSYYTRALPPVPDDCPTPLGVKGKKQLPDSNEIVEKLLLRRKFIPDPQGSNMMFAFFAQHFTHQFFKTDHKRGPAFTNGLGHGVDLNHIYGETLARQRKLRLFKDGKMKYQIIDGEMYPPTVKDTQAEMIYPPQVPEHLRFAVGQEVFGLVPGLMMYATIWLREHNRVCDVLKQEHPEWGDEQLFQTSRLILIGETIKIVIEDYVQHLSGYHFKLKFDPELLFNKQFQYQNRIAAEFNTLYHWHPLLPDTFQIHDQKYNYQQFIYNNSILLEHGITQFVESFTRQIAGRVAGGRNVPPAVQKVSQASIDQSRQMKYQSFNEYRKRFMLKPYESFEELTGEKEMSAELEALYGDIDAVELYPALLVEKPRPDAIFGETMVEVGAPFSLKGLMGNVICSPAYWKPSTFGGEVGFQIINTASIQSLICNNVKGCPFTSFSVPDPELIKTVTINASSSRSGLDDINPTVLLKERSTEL

CS(=O)(=O)c1ccc(C2=C(c3ccccc3)C(=O)OC2)cc1 [TRM-201, 4-[4-(methylsulfonyl)phenyl]-3-phenyl-2(5H)-furanone]
TEAE in preferred term ([1]; 12.5 mg): constipation | subjects who exhibited a TEAE ([1]; 12.5 mg): One | TEAE in preferred term ([1]; 25 mg): ear discomfort and headache | subjects who exhibited a TEAE ([1]; 25 mg): two | severity of all reported TEAE ([1]; 102 PK study): mild | related TEAE, serious TEAE, TEAE leading to study discontinuation, or severe TEAE ([1]; 102 PK study, all doses): No subjects | subjects who exhibited a TEAE, total ([1]; 102 PK study, all doses): three | incidence of TEAE leading to study discontinuation ([1]; at any dosage): no incidence | incidence of related TEAE ([1]; at any dosage): no incidence | incidence of serious TEAE ([1]; at any dosage): no incidence | incidence of gastrointestinal (GI) ulcers visualized at endoscopy compared to certain non-selective NSAIDs ([2]; FDA 2005): reduction | risk of serious GI bleeding compared to a non-selective NSAID (naproxen) ([2]; following chronic use, FDA 2005): reduce the risk | risk of serious adverse cardiovascular events compared to placebo ([2]; long-term controlled clinical trial / FDA 2005): increased risk | inhibition of COX-2 [3]: inhibits COX-2 | Processed Sample Stability ([4]; at 4° C.): 174 Hours at 4 °C | Stock Solution Stability in Dimethyl Sulfoxide ([4]; at Ambient Temperature): 17 Hours at Ambient Temperature | Benchtop Stability in Plasma ([4]; at Ambient Temperature, human plasma): 26 Hours at Ambient Temperature | Stock Solution Stability in Dimethyl Sulfoxide ([4]; at −20° C.): 202 Days at −20 °C | Freeze/Thaw Stability in Plasma ([4]; at −20° C. and −70° C.): 5 Cycles at −20 °C and −70 °C | Long-term Storage Stability in Plasma ([4]; at −20° C. and −70° C.): 184 Days at −20 °C and −70 °C | Benchtop Stability in Whole Blood ([4]; in an Ice Bath when Centrifuged at 4° C. or Ambient Temperature): 2 Hours in an Ice Bath when

Source: patent US10945992B1, “Dosage forms of rofecoxib and related methods” (Tremeau Pharmaceuticals, Inc., priority 2019, dated 2021)
